Laboratory results reported in patent publication US9085603B2, “Progesterone receptor antagonists” (Bayer Intellectual Property GmbH, priority 2010, dated 2015).

Molecular target: T1, human progesterone receptor B (Homo sapiens, UniProt P06401)
T1 construct: expressed in transfected cells; host or cells: SK-N-MC human neuroblastoma cells, stably transfected with pRChPR-B-neo and pMMTV-LUC
T1 sequence (P06401 1-933): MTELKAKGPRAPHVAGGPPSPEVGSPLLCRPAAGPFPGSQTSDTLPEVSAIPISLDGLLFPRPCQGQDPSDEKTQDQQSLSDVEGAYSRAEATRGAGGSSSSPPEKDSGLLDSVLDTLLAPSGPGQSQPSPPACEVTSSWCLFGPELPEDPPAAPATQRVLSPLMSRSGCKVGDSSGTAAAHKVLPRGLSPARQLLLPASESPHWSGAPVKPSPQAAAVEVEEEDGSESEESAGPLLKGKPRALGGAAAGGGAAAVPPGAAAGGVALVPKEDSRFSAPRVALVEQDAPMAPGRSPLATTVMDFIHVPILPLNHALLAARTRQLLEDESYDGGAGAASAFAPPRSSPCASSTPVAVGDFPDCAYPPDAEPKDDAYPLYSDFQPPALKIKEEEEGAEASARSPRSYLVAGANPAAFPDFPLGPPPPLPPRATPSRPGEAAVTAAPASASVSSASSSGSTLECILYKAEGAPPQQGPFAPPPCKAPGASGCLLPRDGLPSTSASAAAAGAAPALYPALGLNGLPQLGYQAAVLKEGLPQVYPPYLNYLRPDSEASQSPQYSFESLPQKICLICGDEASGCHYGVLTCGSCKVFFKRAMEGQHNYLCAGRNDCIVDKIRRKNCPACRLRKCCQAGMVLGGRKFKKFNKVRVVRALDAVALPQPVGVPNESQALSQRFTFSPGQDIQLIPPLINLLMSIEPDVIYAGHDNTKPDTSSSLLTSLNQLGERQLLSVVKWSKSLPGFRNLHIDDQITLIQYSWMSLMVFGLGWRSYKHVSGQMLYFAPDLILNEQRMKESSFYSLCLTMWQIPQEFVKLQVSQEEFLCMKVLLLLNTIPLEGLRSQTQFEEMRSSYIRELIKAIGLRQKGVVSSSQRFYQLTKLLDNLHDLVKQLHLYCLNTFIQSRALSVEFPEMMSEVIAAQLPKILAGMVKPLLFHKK
Assay: Progesterone receptor antagonistic effect in stably transfected SK-N-MC cells, MTV-LUC reporter (PR-B)
Type: cell-based
Conditions: antagonism of 0.1 nmol/l promegestone, luciferase reporter, 24 hours
Procedure: (§1) Progesterone Receptor Antagonistic Effect in Stable Transfectants of Human Neuroblastoma Cells (SK-N-MC cells) with the Human Progesterone A or Progesterone B Receptor and a MTV-LUC Reporter Construct
(§2) SK-N-MC cells (human neuroblastoma cells), which have been stably transfected with plasmids which express the human progesterone receptor B (pRChPR-B-neo) or the human progesterone receptor A (pRChPR-A-neo) and a reporter construct (pMMTV-LUC), were incubated for 24 hours either in the absence (negative control) or in the presence of increasing amounts of the particular test compound (0.01 nmol/l, 0.1 nmol/l, 1 nmol/l, 10 nmol/l, 100 nmol/l and 1 μmol/l) in order to determine the agonistic efficacy. As a positive control of the reporter gene induction, the cells were treated with the synthetic gestagen promegestone (0.01 nmol/l, 0.1 nmol/l, 1 nmol/l, 10 nmol/l, 100 nmol/l and 1 μmol/l). To determine the antagonistic activity, the cells were treated with 0.1 nmol/l of promegestone and additionally with increasing amounts of the particular test compound (0.01 nmol/l, 0.1 nmol/l, 1 nmol/l, 10 nmol/l, 100 nmol/l and 1 μmol/l). The activity of the reporter gene LUC (LUC=luciferase) was determined in the cell lysates and measured as RLU (relative light units). All measurement values are given as percentage efficacy and as EC50 or IC50 concentrations.

Row | IC50 [nM] | SMILES
1 | 8.2 | CN(C)Cc1ccc([C@H]2C[C@@]3(C)C(CC[C@@]3(O)C(F)(F)C(F)(F)F)C3CCC4=CC(=O)CCC4=C32)cc1 (stereo partly drawn) [Example 1, (11β,17β)-11-{4-[(Dimethylamino)methyl]phenyl}-17-hydroxy-17-(pentafluoroethyl)estra-4,9-dien-3-one]
2 | 2.8 | CN1CCN(Cc2ccc([C@H]3C[C@@]4(C)[C@@H](CC[C@@]4(O)C(F)(F)C(F)(F)F)[C@@H]4CCC5=CC(=O)CCC5=C43)cc2)CC1 [Example 2, (11β,17β)-17-Hydroxy-11-{4-[(4-methylpiperazin-1-yl)methyl]phenyl}-17-(pentafluoroethyl)estra-4,9-dien-3-one]

Molecular target: T2, human progesterone receptor A (Homo sapiens, UniProt P06401)
T2 construct: expressed in transfected cells; host or cells: SK-N-MC human neuroblastoma cells, stably transfected with pRChPR-A-neo and pMMTV-LUC
T2 sequence (P06401 1-769 isoform P06401-2): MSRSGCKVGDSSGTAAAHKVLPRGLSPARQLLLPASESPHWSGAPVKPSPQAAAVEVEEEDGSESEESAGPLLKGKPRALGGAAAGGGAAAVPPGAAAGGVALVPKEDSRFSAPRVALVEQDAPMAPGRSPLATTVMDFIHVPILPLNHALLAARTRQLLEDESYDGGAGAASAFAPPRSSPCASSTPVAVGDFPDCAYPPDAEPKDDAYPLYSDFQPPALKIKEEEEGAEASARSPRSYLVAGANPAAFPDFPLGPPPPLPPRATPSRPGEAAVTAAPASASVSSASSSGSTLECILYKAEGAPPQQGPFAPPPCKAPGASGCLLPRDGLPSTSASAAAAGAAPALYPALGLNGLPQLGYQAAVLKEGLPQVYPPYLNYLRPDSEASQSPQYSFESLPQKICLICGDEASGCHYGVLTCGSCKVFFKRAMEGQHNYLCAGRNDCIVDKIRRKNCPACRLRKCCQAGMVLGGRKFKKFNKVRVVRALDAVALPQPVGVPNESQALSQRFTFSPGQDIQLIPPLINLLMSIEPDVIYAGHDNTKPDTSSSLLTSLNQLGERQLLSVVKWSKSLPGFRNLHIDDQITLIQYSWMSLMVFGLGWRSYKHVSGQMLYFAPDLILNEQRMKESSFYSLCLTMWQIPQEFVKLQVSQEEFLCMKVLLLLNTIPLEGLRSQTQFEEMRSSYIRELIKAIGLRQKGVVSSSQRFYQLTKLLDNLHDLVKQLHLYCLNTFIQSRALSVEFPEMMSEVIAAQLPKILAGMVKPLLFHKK
Assay: Progesterone receptor antagonistic effect in stably transfected SK-N-MC cells, MTV-LUC reporter (PR-A)
Type: cell-based
Conditions: antagonism of 0.1 nmol/l promegestone, luciferase reporter, 24 hours
Procedure: as §1, §2

Row | SMILES | IC50 [nM]
3 | C[C@]12C[C@H](c3ccc(CN4CCC(c5ccccc5)CC4)cc3)C3=C4CCC(=O)C=C4CC[C@H]3[C@@H]1CC[C@@]2(O)C(F)(F)C(F)(F)F [Example 41, (11β,17β)-17-Hydroxy-17-(pentafluoroethyl)-11-{4-[(4-phenylpiperidin-1-yl)methyl]phenyl}estra-4,9-dien-3-one] | 11.2
4 | CN(C)C(=O)N1CCN(Cc2ccc([C@H]3C[C@@]4(C)[C@@H](CC[C@@]4(O)C(F)(F)C(F)(F)F)[C@@H]4CCC5=CC(=O)CCC5=C43)cc2)CC1 [Example 42, 4-{4-[(11β,17β)-17-Hydroxy-3-oxo-17-(pentafluoroethyl)estra-4,9-dien-11-yl]benzyl}-N,N-dimethylpiperazine-1-carboxamide] | 0.52
5 | C[C@]12C[C@H](c3ccc(CN4CCN(Cc5ccccn5)CC4)cc3)C3=C4CCC(=O)C=C4CC[C@H]3[C@@H]1CC[C@@]2(O)C(F)(F)C(F)(F)F [Example 43, (11β,17β)-17-Hydroxy-17-(pentafluoroethyl)-11-(4-{[4-(pyridin-2-ylmethyl)piperazin-1-yl]methyl}phenyl)estra-4,9-dien-3-one] | 2.88
6 | C[C@]12C[C@H](c3ccc(CN4CCN(Cc5cccnc5)CC4)cc3)C3=C4CCC(=O)C=C4CC[C@H]3[C@@H]1CC[C@@]2(O)C(F)(F)C(F)(F)F [Example 44, (11β,17β)-17-Hydroxy-17-(pentafluoroethyl)-11-(4-{[4-(pyridin-3-ylmethyl)piperazin-1-yl]methyl}phenyl)estra-4,9-dien-3-one] | 3.06
7 | CNC(=O)CN1CCN(Cc2ccc([C@H]3C[C@@]4(C)[C@@H](CC[C@@]4(O)C(F)(F)C(F)(F)F)[C@@H]4CCC5=CC(=O)CCC5=C43)cc2)CC1 [Example 45, 2-(4-{4-[(11β,17β)-17-Hydroxy-3-oxo-17-(pentafluoroethyl)estra-4,9-dien-11-yl]benzyl}piperazin-1-yl)-N-methylacetamide] | 1.65
8 | C[C@]12C[C@H](c3ccc(CN4CCCC4)cc3)C3=C4CCC(=O)C=C4CC[C@H]3[C@@H]1CC[C@@]2(O)C(F)(F)C(F)(F)F [Example 46, (11β,17β)-17-Hydroxy-17-(pentafluoroethyl)-11-[4-(pyrrolidin-1-ylmethyl)phenyl]estra-4,9-dien-3-one] | 37.4
9 | C[C@]12C[C@H](c3ccc(CN4CCN(c5ccncc5)CC4)cc3)C3=C4CCC(=O)C=C4CC[C@H]3[C@@H]1CC[C@@]2(O)C(F)(F)C(F)(F)F [Example 50, (11β,17β)-17-Hydroxy-17-(pentafluoroethyl)-11-(4-{[4-(pyridin-4-yl)piperazin-1-yl]methyl}phenyl)estra-4,9-dien-3-one] | 1.2
10 | CN(C)CCN1CCN(Cc2ccc([C@H]3C[C@@]4(C)C(CC[C@@]4(O)C(F)(F)C(F)(F)F)C4CCC5=CC(=O)CCC5=C43)cc2)CC1 (stereo partly drawn) [Example 51, (11β,17β)-11-[4-({4-[2-(Dimethylamino)ethyl]piperazin-1-yl}methyl)phenyl]-17-hydroxy-17-(pentafluoroethyl)estra-4,9-dien-3-one] | 64.7

More lines, now with the values ahead:

Row | IC50 [nM] | SMILES
11 | 7.5 | CN(C)Cc1ccc([C@H]2C[C@@]3(C)C(CC[C@@]3(O)C(F)(F)C(F)(F)F)C3CCC4=CC(=O)CCC4=C32)cc1 (stereo partly drawn) [Example 1, (11β,17β)-11-{4-[(Dimethylamino)methyl]phenyl}-17-hydroxy-17-(pentafluoroethyl)estra-4,9-dien-3-one]
12 | 0.49 | C[C@]12C[C@H](c3ccc(CNc4cccc(S(N)(=O)=O)c4)cc3)C3=C4CCC(=O)C=C4CC[C@H]3[C@@H]1CC[C@@]2(O)C(F)(F)C(F)(F)F [Example 40, 3-({4-[(11β,17β)-17-Hydroxy-3-oxo-17-(pentafluoroethyl)estra-4,9-dien-11-yl]benzyl}amino)benzenesulphonamide]
13 | 2.71 | C[C@]12C[C@H](c3ccc(CNCc4ccncc4)cc3)C3=C4CCC(=O)C=C4CC[C@H]3[C@@H]1CC[C@@]2(O)C(F)(F)C(F)(F)F [Example 47, (11β,17β)-17-Hydroxy-17-(pentafluoroethyl)-11-(4-{[(pyridin-4-ylmethyl)amino]methyl}phenyl)estra-4,9-dien-3-one]
14 | 1.28 | CN(Cc1ccc([C@H]2C[C@@]3(C)[C@@H](CC[C@@]3(O)C(F)(F)C(F)(F)F)[C@@H]3CCC4=CC(=O)CCC4=C32)cc1)c1ccccc1 [Example 48, (11β,17β)-17-Hydroxy-11-(4-{[methyl(phenyl)amino]methyl}phenyl)-17-(pentafluoroethyl)estra-4,9-dien-3-one]
15 | 1.29 | C[C@]12C[C@H](c3ccc(CNc4ccccc4C(N)=O)cc3)C3=C4CCC(=O)C=C4CCC3C1CC[C@@]2(O)C(F)(F)C(F)(F)F (stereo partly drawn) [Example 49, 2-({4-[(11β,17β)-17-Hydroxy-3-oxo-17-(pentafluoroethyl)estra-4,9-dien-11-yl]benzyl}arnino)benzamide]
16 | 6.5 | CN(CCc1ccccn1)Cc1ccc([C@H]2C[C@@]3(C)[C@@H](CC[C@@]3(O)C(F)(F)C(F)(F)F)[C@@H]3CCC4=CC(=O)CCC4=C32)cc1 [Example 52, (11β,17β)-17-Hydroxy-11-[4-({methyl[2-(pyridin-2-yl)ethyl]amino}methyl)phenyl]-17-(pentafluoroethyl)estra-4,9-dien-3-one]
17 | 0.84 | C[C@]12C[C@H](c3ccc(CNc4cccc(C(N)=O)c4)cc3)C3=C4CCC(=O)C=C4CC[C@H]3[C@@H]1CC[C@@]2(O)C(F)(F)C(F)(F)F [Example 53, 3-({4-[(11β,17β)-17-Hydroxy-3-oxo-17-(pentafluoroethyl)estra-4,9-dien-11-yl]benzyl}amino)benzamide]
18 | 1.28 | C[C@]12C[C@H](c3ccc(CNc4ccc(C(=O)Nc5ccccc5)cc4)cc3)C3=C4CCC(=O)C=C4CC[C@H]3[C@@H]1CC[C@@]2(O)C(F)(F)C(F)(F)F [Example 54, 4-({4-[(11β,17β)-17-Hydroxy-3-oxo-17-(pentafluoroethyl)estra-4,9-dien-11-yl]benzyl}amino)-N-phenylbenzamide]
